The target in this experiment is mGluR8b (Homo sapiens, UniProt O00222). The experiment is described as follows: […]GTPγS binding, inhibition of the potentiation by AZ12216052. The class given is cell-based. For orientation: GTPγS resists hydrolysis and so accumulates on activated G proteins.

The source of these data is PMC2892883 (Behavioural brain research, 2010).

Sequence of mGluR8b (O00222 34-908 isoform O00222-2): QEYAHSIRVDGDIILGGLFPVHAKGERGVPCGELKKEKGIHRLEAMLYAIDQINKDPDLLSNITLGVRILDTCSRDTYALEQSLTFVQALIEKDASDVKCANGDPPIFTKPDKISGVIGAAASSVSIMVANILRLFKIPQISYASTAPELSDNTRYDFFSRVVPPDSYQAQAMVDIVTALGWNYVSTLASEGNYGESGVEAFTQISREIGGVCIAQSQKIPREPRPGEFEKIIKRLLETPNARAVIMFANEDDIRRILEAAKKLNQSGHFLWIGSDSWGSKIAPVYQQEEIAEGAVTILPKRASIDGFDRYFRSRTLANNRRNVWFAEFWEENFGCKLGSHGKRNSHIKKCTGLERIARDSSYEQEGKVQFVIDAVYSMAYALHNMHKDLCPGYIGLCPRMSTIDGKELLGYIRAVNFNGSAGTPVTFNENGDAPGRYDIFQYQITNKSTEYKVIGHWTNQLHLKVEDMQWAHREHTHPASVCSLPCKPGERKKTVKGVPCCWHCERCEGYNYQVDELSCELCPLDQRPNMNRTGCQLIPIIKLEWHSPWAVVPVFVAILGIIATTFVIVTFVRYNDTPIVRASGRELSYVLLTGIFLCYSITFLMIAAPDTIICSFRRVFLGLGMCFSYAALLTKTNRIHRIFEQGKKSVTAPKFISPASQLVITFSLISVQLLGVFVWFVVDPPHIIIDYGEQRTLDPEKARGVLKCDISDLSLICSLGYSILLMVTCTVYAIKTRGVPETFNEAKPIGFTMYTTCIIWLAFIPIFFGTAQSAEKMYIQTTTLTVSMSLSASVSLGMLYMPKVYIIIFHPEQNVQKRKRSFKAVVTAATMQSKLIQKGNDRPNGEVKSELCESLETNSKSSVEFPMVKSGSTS

As to `NC(C(=O)O)(c1ccc(P(=O)(O)O)cc1)C1CC1` (racemic) [CPPG], the “[35S]GTPγS binding, inhibition of the potentiation by AZ12216052” value was “The potentiator effect of AZ12216052 on mGluR8 is inhibited by group-II/III antagonists LY341495 and CPPG”.
